Values joined by “and” are separate entries in the source; they are usually repeats but may differ in a detail not shown here. Identical values can stand only once.
What was measured:
A549 cell = assay: Cytotoxicity test (SRB method) for A549 cells; format: cell-based, human; settings: for EC50: A549 human lung cancer cell, SRB, 48 hours incubation, read-out: ED50(nM) for A549
Source text: Human lung carcinomas A549 and […] were used for determining cytotoxicity of the compounds of the present invention according to the Sulfrhodamine-B (SRB) method which was developed by NCI in 1989 in order to determine in vitro anticancer activity of drugs.
Cells to be used in the experiment were separated from a surface using 0.5% Trypsin-EDTA solution and suspended in a density of 5×10^4 cell/ml therein. The cell suspension was introduced into a 96-well plate in an amount of 180/well and incubated for 24 hours in a 5% CO2 incubator of 37° C. Samples were dissolved in dimethylsulfoxide and then diluted by water distilled in advance for three times just before the experiment. Forty-one (41) samples were prepared into 4 types of final concentrations, i.e., 0.1, 0.03, 0.01 and 0.003 mg per ml of the medium. The diluted sample solutions were added to the 96-well plate in the amount of 20 μl/well and incubated for 48 hours in a CO2 incubator of 37° C. At the time of adding the samples, Tz (Time zero) plate was taken. The medium was removed from the Tz plate and each of the plates after incubation were completed. Ten (10)% […] (TCA) was added in the amount of […], and allowed to stand for 1 hour at 4° C. to fix the cells on the bottom surface of the plate. After the cells were fixed, the plate was washed five to six times with water to completely remove the remaining TCA solution and then dried at room temperature to completely remove the moisture. To the fully dried plate was introduced a dye solution in the amount of […] in which 0.4% SRB was dissolved in 1% acetic acid solution. […] After the dyeing process, the plate was dried again at room temperature. 100 ml of 10 mM Tris solution was added thereto in order to dissolve the dye, and then O.D. (optical density) was determined by microplate reader at 520 nm.
ED50 values for cancer cells were calculated as follows. The amount of SRB protein was analyzed at the time when incubation started by the addition of the sample. This amount was named time zero (Tz). The O.D. value obtained from a group which was not treated by the sample was named Control group (C) and the O.D. value obtained from a group which was treated by the sample was named Test group (T).
The degree of cytotoxicity of the compounds was calculated from Tz, C and T values according to the following equation.
That is, in the case of Tz≧T, the degree was calculated by
(T−Tz)/(C−Tz)×100(%), and
• in the case of Tz<T, the degree was calculated by […].
From the values thus obtained, ED50 value which is defined as the concentration at which growth of the cancer cell is inhibited by 50% was calculated using the regression function of Excel program.

[1] = tested on: Lewis Lung Cancer Cell (LLC); assay: Anti-cancer test for BDF1 mouse transplanted by Lewis Lung Cancer Cell, Experiment 2-1 (formulae 1a, 1b); format: in vivo; settings: peritoneal injection 0.06 mmole/kg/day at days 1, 2, 4, 7, 8 (etoposide 36 mg/kg), cancer volume at 14 to 16 days
Source text: In order to evaluate the anti-cancer activity of the compounds of the present invention, LLC, which is a lung cancer cell of mouse, was transplanted into the hypodermic region of BDF1 mouse to induce a solid cancer. […] Experiment for the compounds of formulae (1a) and (1b) and that for the compound of formula (1c) were separately carried out.
Male BDF1 mouse (Weight 18 to 25 g), being in good health and purchased from Korea Biolink Co., was used as a test animal.
The mice were bred at a place controlled to the temperature of 23 to 24° C. while provided with water and feed ad libitum. As the feed, feed for mouse containing no antibiotics was used. The hypodermic tissue of C57BL/6 mouse, which includes cells cultured therein for 14 days, was taken up. Sterilized cold physiological saline was added to the tissue in the amount of 5 ml/g tissue to make a cell suspension. This cell suspension of 0.2 ml was transplanted into the hypodermic region of armpit of BDF1 mouse.
(§1) Each group includes 5 mice. After 24 hours from the transplantation, each test compound of formulae (1a) and (1b) was dissolved in 4% Tween 80 and injected peritoneally in the amount of 0.2 ml and in a concentration of 0.06 mmole/kg/day (that is, 0.06 mmole of each test compound was dissolved in 10 ml of 4% Tween 80, and then 0.2 ml of the resulting solution was peritoneally injected into a mouse). Only 4% Tween 80 was injected for the negative control group, and the same moles of etoposide (36 mg/kg) was injected for the positive control group. The injection was performed five times at 1, 2, 4, 7 and 8 days from the transplantation of cancer.
The anti-cancer effect was determined by measuring the volume of cancer of the control and test groups at 14 to 16 days from the administration of drugs and then calculated as follows. Volume of Cancer(mm^3)=Length(mm)×Width^2(mm^2)/2 Suppression Rate of Cancer Growth(%)=(C−T)×100(%)/C in which • C represents the average volume of cancer (mm^3) of the control group, and • T represents the average volume of cancer (mm^3) of the test group.

[2] = Weight change in the period of drug administration; format: in vivo, mouse; settings: for Weight of mouse, Day 1: Day 1 from the cancer cell transplantation; for Weight of mouse, Day 2: Day 2 from the cancer cell transplantation; for Weight of mouse, Day 3: Day 3 from the cancer cell transplantation; for Weight of mouse, Day 4: Day 4 from the cancer cell transplantation; for Weight of mouse, Day 5: Day 5 from the cancer cell transplantation; for Weight of mouse, Day 6: Day 6 from the cancer cell transplantation; for Weight of mouse, Day 7: Day 7 from the cancer cell transplantation; for Weight of mouse, Day 8: Day 8 from the cancer cell transplantation
Experimental: as §1
As an index of toxicity, the weight change during the period of drug administration was recorded for the compounds of formulae (1a) and (1b) compared with the comparison compound of Etoposide.

Compound | EC50 (A549 cell) [nM] | Suppression Rate for LLC [1] | Weight of mouse, Day 1 [2] [g] | Weight of mouse, Day 2 [2] [g] | Weight of mouse, Day 3 [2] [g] | Weight of mouse, Day 4 [2] [g] | Weight of mouse, Day 5 [2] [g] | Weight of mouse, Day 6 [2] [g] | Weight of mouse, Day 7 [2] [g] | Weight of mouse, Day 8 [2] [g] | weight loss ([2]; compared with the control group, 8 days) | cytotoxicity compared with DPT (A549 cell; A549, in words)
COc1cc(C2c3cc4c(cc3CC3COC(=O)C32)OCO4)cc(OC)c1OC(=O)CCCCCCN (stereo not drawn) [Compound 1a-14, 4′-demethyl-4′-O-(7-aminoheptanoyl)-1-deoxypodophyllotoxin] | 79.6 | 90% | 23 | 23.8 | 21.6 | 26 | 22.3 | 22.8 | 22.8 | 22.5 | about 0.5 g/mouse | 
COc1cc(C2c3cc4c(cc3CC3COC(=O)C32)OCO4)cc(OC)c1OC(=O)C(N)CC(C)C (stereo not drawn) [Compound 1a-2, 4′-demethyl-4′-O-leucinoyl-1-deoxypodophyllotoxin] | 68 | 88% | 23.3 | 24.3 | 25 | 26.1 | 26 | 25 | 25.3 | 26.1 |  | stronger cytotoxicity than DPT
COc1cc(C2c3cc4c(cc3CC3COC(=O)C32)OCO4)cc(OC)c1OC(=O)CCCCCCCN (stereo not drawn) [Compound 1a-15, 4′-demethyl-4′-O-(8-aminooctanoyl)-1-deoxypodophyllotoxin] | 74.2 | 34.5% |  |  |  |  |  |  |  |  |  | 
COc1cc(C2c3cc4c(cc3CC3COC(=O)C32)OCO4)cc(OC)c1OC(=O)CCCCCN (stereo not drawn) [Compound 1a-13, 4′-demethyl-4′-O-(6-aminohexanoyl)-1-deoxypodophyllotoxin] | 88.5 | 85% and 85.5% | 23 | 24.2 | 25 | 25.2 | 25 | 25.5 | 26 | 26.2 |  | 
COc1cc(C2c3cc4c(cc3CC3COC(=O)C32)OCO4)cc(OC)c1OC(=O)CCN (stereo not drawn) [Compound 1a-10, 4′-demethyl-4′-O-(3-aminopropanoyl)-1-deoxypodophyllotoxin] | 96.7 | 78% | 22.9 | 24.1 | 25 | 25.1 | 25.5 | 25.3 | 25 | 25.3 |  | 
COc1cc(C2c3cc4c(cc3CC3COC(=O)C32)OCO4)cc(OC)c1OC(=O)NCCCl (stereo not drawn) [Compound 1b-3, 4′-demethyl-4′-O-(2-chloroethylcarbamoyl)-1-deoxypodophyllotoxin] | 92 | 75% | 23.3 | 23 | 23.6 | 24.5 | 26 | 25 | 26 | 25.8 |  | 

Source: US6894075B2, “4′-demethyl-4′-O-substituted-1-deoxypodophyllotoxin derivative and geometric isomer thereof, process for the preparation thereof and anti-cancer composition comprising the same” (priority 2000, dated 2005)
